Here are results for 2 compounds from US9198848B2, “Process for obtaining extracts containing methylxanthine derivatives from cakes of plants of the genus Theobroma, as well as composition and use of said extract” (Natura Cosmeticos S.A., priority 2008, dated 2015).

One assay has as its system human fibroblasts. Briefly: Production of β-endorphin in a culture of human fibroblasts (ELISA). The format is cell-based. The note with it: 0.038-0.600 μg/mL, 48 hr incubation, FIG. 2.
The test system of a further assay is human keratinocytes. Briefly: Production of β-endorphin in a culture of human keratinocytes (ELISA). As to conditions: 0.038-0.600 μg/mL, 48 hr incubation, FIG. 3. The class given is cell-based.
The next assay concerns bovine fosfodiesterase. As to conditions: in vitro bovine fosfodiesterase; theobromine versus caffeine; cited from earlier work.
Assay [1] has as its system UVA light-induced wrinkles. As to conditions: topical; 10 mM; UVA 13.0 J/cm^2; 15-week study; cited from earlier work.
Another assay deals with adipocytes. As to conditions: ex vivo adipocytes; caffeine versus theobromine; lypolisis rate by intracelullar glycerol; cited from earlier work.

Procedure for human fibroblasts: To carry out the experiments a cell line (pure/isolated culture) of human fibroblasts, adult age (mature), 6a passage was used.
The cells were cultured on appropriate culture plates (24 well) in specific medium culture, containing supplements required for cell maintenance and proliferation. For that purpose, 1×10^5 cells/well were seeded, confluence being reached after a 48 hour incubation, in a wet stove, 5% CO2, 37° C.
Subsequent to confluence (approximately 80% of the total area), the samples to be assessed were added, at the appropriate concentrations and previously established, according to table 1, always keeping a group as CONTROL (with no treatment), for comparative purposes in assessing effectiveness. The samples were previously diluted in proper culture medium.
(§1) After 48 hour incubation (wet stove, 5% CO2, 37° C.) with the samples, the supernatant of cell cultures were collected for assessing the beta-endorphin release. The possible citotoxicity of the compound was also assessed and taken into account. Assessment was qualitative only, by analysis of morphology and cell characteristics.
Quantification of the production of beta-endorphin by the cells in culture was carried out by the immunoenzymatic method ELISA (Enzyme-Linked Immunosorbent Assay), using a kit appropriate for determining beta-endorphin in biological samples. The samples were assessed in quadruplicate.
Procedure for human keratinocytes: To carry out the experiments a cell line (pure/isolated culture) of human keranoticytes, adult age (mature), 7th passage was used.
The cells were cultured on appropriate culture plates (24 well) in specific medium culture, containing supplements required for cell maintenance and proliferation. For that purpose, 1×10^5 cells/well were seeded, confluence being reached after 72 hour incubation, in a wet stove, 5% CO2, 37° C.
Subsequent to confluence (approximately 80% of the total area), the samples to be assessed were added, at the appropriate concentrations and previously established, according to table 2, always keeping a group as CONTROL (with no treatment), for comparative purposes in assessing effectiveness. The samples were previously diluted in proper culture medium.
as §1
Quantification of the production of beta-endorphin by the cells in culture was carried out by the immunoenzymatic method ELISA (Enzyme-Linked immunosorbent Assay), using a kit appropriate for determining de beta-endorphin in biological samples. The samples were assessed in quadruplicate.

As for `Cn1c(=O)c2c(ncn2C)n(C)c1=O` [caffeine], the “production of β-endorphin compared with TC150905MX at the same concentration” value in the assay on human fibroblasts and in the assay with human keratinocytes was “higher production of β-endorphin” in each case. Moreover, in the assay with bovine fosfodiesterase, the “power in the ability of increasing AMPc (fosfodiesterase inhibition)” value was “identical”. For the same compound, the “prevention of UVA light-induced wrinkles” value in assay [1] is “effective”. Moreover, the “power on noradrenaline-induced lypolisis” value in the assay with adipocytes is reported as “equivalent power”.

Regarding `Cn1cnc2c1c(=O)[nH]c(=O)n2C` [theobromine], in the assay with bovine fosfodiesterase, the “power in the ability of increasing AMPc (fosfodiesterase inhibition)” value is given as “identical”.
